These results are taken from patent US20100304418A1, “Compositions and Methods for Monitoring Flow Through Fluid Conducting and Containment Systems” (priority 2007, published 2010).

Data set [1] addresses T1, galactose oxidase (Gibberella zeae, UniProt P0CS93).
A short description of data set [2]: Thermal stability of galactose and derivatives. As to conditions: 20 h.
Description: The thermal stability of both galactose and octy-galactose was investigated. Galactose and octyl-galacotse solutions (50 ppm, 30 mL) were prepared in both deionised water and formation water. These solutions were divided and the pH of one water sample and one formation water sample was adjusted to 2 with HCl. 4.5 mL of each solution was placed in a duran bottle with Teflon tape wrapped around the threads to prevent evaporation. The eight samples were heated at 100 or 120° C. for 20 h. The remaining solutions were kept at 4° C. inbetween experiments. Each of the samples was diluted 10-fold before analysis.
The target of data set [3] is T2, xanthine oxidase (Bos taurus, UniProt P80457).
T2 construct: purchased
Description: Limit of detection of xanthine and hypoxanthine, xanthine oxidase / Amplex Red assay.
Description: This assay uses xanthine oxidase to catalyze the oxidation of hypoxanthine or xanthine, to uric acid and superoxide. The superoxide spontaneously degrades to hydrogen peroxide (H2O2), which reacts stoichiometrically with Amplex® Red in the presence of horseradishperoxidase (HRP). A fluorescent product, resorufin, is generated which can be detected fluorometrically or spectrophotometrically.

Data set [4] concerns the target T1, galactose oxidase. Format: biochemical.
A short description of data set [5]: Thermostability of xanthine and hypoxanthine. As to conditions: room temperature and 120° C., 20 h, acidic and neutral pH.
Description: These solutions were divided and the pH of one sample of each compound was adjusted to 2 with HCl. 4.5 mL of each solution was placed in a duran bottle with Teflon tape wrapped around the threads to prevent evaporation. The samples were heated at 120° C. for 20 h. The remaining solutions were kept at 25° C. Each of the samples was diluted 10-fold to 7.5 ppm before analysis.
Data set [6] concerns seawater bacteria. As to conditions: 28 day seawater test.
Data set [7] can be described thus: Biodegradation, 28 day seawater test, OECD 306. To be noted: over 28 days.
Data set [8] can be described thus: Heat treatment of GFP solution with added biotin. As to conditions: 100° C. for 1 hour in GFP solution.
Description: The sample has high fluorescence from the GFP. This solution was treated in 2 ways (a) no treatment (b) heat treated (samples were heated to 100° C. for 1 hour in an oven).

T1 sequence (P0CS93 42-680 limits assumed): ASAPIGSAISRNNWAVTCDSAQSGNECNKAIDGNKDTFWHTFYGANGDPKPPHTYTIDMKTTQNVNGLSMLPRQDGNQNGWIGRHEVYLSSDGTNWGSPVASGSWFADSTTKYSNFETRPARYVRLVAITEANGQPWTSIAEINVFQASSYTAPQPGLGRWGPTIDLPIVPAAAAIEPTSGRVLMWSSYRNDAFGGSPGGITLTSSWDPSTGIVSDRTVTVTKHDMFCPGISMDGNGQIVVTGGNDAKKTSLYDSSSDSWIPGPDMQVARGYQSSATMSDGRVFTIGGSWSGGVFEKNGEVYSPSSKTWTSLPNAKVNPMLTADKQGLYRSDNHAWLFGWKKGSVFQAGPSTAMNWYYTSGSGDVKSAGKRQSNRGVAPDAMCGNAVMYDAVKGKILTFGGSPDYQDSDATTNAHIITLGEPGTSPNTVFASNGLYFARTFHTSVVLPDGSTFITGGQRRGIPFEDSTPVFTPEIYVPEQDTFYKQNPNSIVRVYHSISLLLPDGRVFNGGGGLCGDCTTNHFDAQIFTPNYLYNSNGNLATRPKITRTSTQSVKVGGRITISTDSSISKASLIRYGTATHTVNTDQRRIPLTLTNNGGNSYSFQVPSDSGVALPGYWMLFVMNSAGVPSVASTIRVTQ
T2 sequence (P80457 whole entry): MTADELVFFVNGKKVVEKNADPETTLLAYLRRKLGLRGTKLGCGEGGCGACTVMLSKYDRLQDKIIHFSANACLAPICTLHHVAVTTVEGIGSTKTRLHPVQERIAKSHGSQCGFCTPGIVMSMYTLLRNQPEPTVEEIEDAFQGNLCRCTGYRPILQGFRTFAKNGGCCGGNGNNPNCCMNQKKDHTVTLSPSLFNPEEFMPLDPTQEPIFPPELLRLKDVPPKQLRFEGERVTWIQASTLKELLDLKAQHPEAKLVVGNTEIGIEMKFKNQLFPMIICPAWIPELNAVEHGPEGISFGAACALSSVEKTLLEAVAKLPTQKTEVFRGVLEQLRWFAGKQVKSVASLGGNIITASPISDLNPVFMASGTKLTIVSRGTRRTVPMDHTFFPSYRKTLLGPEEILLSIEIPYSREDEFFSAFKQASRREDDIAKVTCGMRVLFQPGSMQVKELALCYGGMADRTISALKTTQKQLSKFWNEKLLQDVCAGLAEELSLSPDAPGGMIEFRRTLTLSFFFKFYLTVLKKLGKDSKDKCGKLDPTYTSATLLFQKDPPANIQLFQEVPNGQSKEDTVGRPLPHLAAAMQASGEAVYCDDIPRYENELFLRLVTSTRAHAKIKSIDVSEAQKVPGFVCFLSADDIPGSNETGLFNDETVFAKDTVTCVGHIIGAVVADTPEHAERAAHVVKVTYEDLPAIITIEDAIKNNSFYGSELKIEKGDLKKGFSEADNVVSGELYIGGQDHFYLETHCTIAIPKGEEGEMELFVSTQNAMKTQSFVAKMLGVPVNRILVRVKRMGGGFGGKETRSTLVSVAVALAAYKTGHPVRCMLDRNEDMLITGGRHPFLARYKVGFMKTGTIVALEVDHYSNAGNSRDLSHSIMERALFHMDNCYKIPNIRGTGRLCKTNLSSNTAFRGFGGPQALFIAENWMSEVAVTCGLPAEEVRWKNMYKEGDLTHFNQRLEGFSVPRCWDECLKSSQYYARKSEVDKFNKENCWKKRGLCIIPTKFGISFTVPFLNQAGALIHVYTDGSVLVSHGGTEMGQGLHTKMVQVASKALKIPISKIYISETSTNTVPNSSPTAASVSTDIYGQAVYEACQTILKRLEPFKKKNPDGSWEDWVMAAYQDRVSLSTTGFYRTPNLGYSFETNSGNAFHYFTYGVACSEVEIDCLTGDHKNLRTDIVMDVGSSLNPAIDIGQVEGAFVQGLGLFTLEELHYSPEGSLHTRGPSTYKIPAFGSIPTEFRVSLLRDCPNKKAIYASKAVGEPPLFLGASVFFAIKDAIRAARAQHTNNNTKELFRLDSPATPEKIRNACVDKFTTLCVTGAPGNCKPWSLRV

As to `O=C[C@H](O)[C@@H](O)[C@@H](O)[C@H](O)CO` [galactose], in data set [1], the detectable concentration range is reported as 0-30 ppm and the limit of detection entry is “ca. 0.3 ppm”. Further, the thermal stability entry in data set [2] (above 100° C. (120° C.)) is given as “a drop in concentration is observed”. For the same compound, the thermal stability result in data set [2] (to 100° C., water and formation water, pH 6-7 and pH 2) was “sufficiently stable”.
Take `O=c1[nH]c(=O)c2[nH]cnc2[nH]1` [xanthine]: the limit of detection entry in data set [3] is “less than 0.16 ppm”.
Take `O=C(CO)[C@@H](O)[C@H](O)[C@H](O)CO` [fructose]: the “oxidation by galactose oxidase / interference with galactose assay” value in data set [4] is listed as “can be oxidized by galactose oxidase”.
As to `O=c1[nH]cnc2nc[nH]c12` [hypoxanthine], the limit of detection in data set [3] was over 0.02 ppm. The thermal stability result in data set [5] is listed as “stable”.
As for `O=C(O)CCCC[C@@H]1SC[C@@H]2NC(=O)N[C@@H]21` [biotin], the “drop in fluorescence after heat and pressure” value (250 nM in synthetic formation water, 150° C., 3 kbar, 15 minutes) is recorded as “no obvious drop in fluorescence”. In addition, the “loss of fluorescence due to temperature and pressure” value (dilution series, increasing temperatures up to 150° C., 4 kbar, aqueous phase of produced fluids) was “No loss of fluorescence”. The “inhibition to seawater bacteria” value in data set [6] was found to be 42%. For the same compound, the degradation in [7] worked out at 14%. For the same compound, the “effect of heat treatment on biotin detection” value in [8] is reported as “unaffected”.
